A short description of assay [1]: Inhibition of wild type EGFR in human HT-29 cells assessed as cell growth inhibition measured after 72 hrs by Celltiter-Glo luminescent cell viability assay. (In general: ATP-based viability assays read luminescence as a measure of living cells.)
A short description of assay [2]: Inhibition of wild type EGFR in human A-431 cells assessed as cell growth inhibition measured after 72 hrs by Celltiter-Glo luminescent cell viability assay.
A short description of assay [3]: Inhibition of wild type EGFR in human HepG2 cells assessed as cell growth inhibition measured after 72 hrs by Celltiter-Glo luminescent cell viability assay.
Assay [4] is described as follows: Inhibition of wild type EGFR in human MCF7 cells assessed as cell growth inhibition measured after 72 hrs by Celltiter-Glo luminescent cell viability assay.

Where only a bound is given, the exact number is not on record here.

As a reminder, the IC50 is the concentration at which inhibition is half-maximal. As for `C=CCSSCCC(=O)OCCCOc1cc2ncnc(Nc3cccc(Br)c3)c2cc1OC`, the IC50 in assay [1] was over 10 µM; in assay [2], 6.7 µM; in assay [3] it was over 10 µM; in assay [4], 7.31 µM.

For the origin of these results see BindingDB's records for doi:10.1016/j.ejmech.2020.112522 (Xuzhou Medical University, 2020).
